In patent US20070020340A1, “Fish oil products for reducing cholesterol, low density lipoprotein, and hypertension” (priority 2005, published 2007):

Tests used:
interleukin-1-beta = settings: cited from earlier work
hyperlipidemic rabbits = settings: cholesterol-rich diet; cited from earlier work
[1] = system: men with moderately elevated cholesterol who also suffered from moderate to high hypertension; experiment: 16-week study of fish oil (EPA/DHA) with or without allicin, oleuropein or Policosanol in eight treatment groups; format: in vivo, human; settings: after sixteen weeks of daily treatment
Procedure: Eighty men with moderately elevated cholesterol who also suffered from moderate to high hypertension, were assigned to one of eight treatment groups, and followed for 16 weeks. The EPA and DHA administered was from fish oil and in free fatty acid form containing 3 grams of EPA and 2 grams of DHA, administered daily. Group one received fish oil alone. Group two received the same amount of fish oil with 5 mg allicin dissolved in the fish oil. Group three received the same amount of fish oil with 100 mg oleuropein dissolved therein. Group four received the same amount of fish oil with 10 mg of Policosanol dissolved therein. Group five received soft gelatin capsules with sunflower oil rather than fish oil. Group six received 5 mg of allicin dissolved in sunflower oil. Group seven received 100 mg oleuropein dissolved in sunflower oil. Group eight received Policosanol dissolved in sunflower oil. After sixteen weeks of treatment, the results were as follows: • 1. Group one registered 5% lowering of serum triglycerides. There was no change in HDL cholesterol and an 8% increase in LDL. Systolic blood pressure dropped by average of 3% and diastolic blood pressure dropped by average of 2%. • 2. Group two registered a 30% lowering of triglycerides, 12% decrease in LDL, and 8% increase in HDL. Both systolic and diastolic blood pressure dropped by an average of 10% • 3. Group three registered a 25% lowering of serum triglycerides, 10% decrease of LDL, and 10% increase in HDL. Systolic pressure dropped by average of 12% and diastolic pressure dropped by average of 10% • 4. Group four registered 20% lowering of serum triglycerides, 12% decrease of LDL, and 8% increase in HDL. Systolic and diastolic pressure dropped by average of 10%. • 5. Group five had no change in any of the parameters tested. • 6. Group six registered 3% lowering of serum triglycerides, 6% lowering of LDL and 2% increase of HDL. Sistolic and diastolic pressure dropped by average of 5% • 7. […] Systolic blood pressure dropped by average of 7% and diastolic pressure dropped by average of 5%. • 8. Group eight registered 10% lowering of serum triglycerids, 8% lowering of LDL, and 5% increase of HDL.

[2] = compared with oleuropein, tyrosol, hydroxytyrosol; cited from earlier work

Row | Structure (SMILES) | concentration of interleukin-1-beta (interleukin-1-beta) | diastolic blood pressure dropped by average of [1] [%] | lowering of serum triglycerides [1] [%] | systolic blood pressure dropped by average of [1] [%] | other results
1 | O=C(O)/C=C/c1ccc(O)c(O)c1 [carreic acid] | decreased |  |  |  | 
2 | C=CCS[S+]([O-])CC=C (stereo not drawn) [allicin] |  |  |  |  | effect on the serum lipid profile (hyperlipidemic rabbits): beneficial effect
3 | C=CCS[S+]([O-])CC=C (stereo not drawn) [Group six, allicin] |  | 5 | 3 | 5 | decrease in LDL [1]: 6%; increase in HDL [1]: 2%
4 | C/C=C1/[C@H](O[C@@H]2O[C@H](CO)[C@@H](O)[C@H](O)[C@H]2O)OC=C(C(=O)OC)[C@H]1CC(=O)OCCc1ccc(O)c(O)c1 [oleuropein glycoside] | decreased |  |  |  | 
5 | COc1cc(CCO)ccc1O [homovanillic alcohol] |  |  |  |  | antioxidant potency [2]: significantly more potent antioxidant than the other phenolics
6 | C/C=C1/[C@H](O[C@@H]2O[C@H](CO)[C@@H](O)[C@H](O)[C@H]2O)OC=C(C(=O)OC)[C@H]1CC(=O)OCCc1ccc(O)c(O)c1 [Group seven, oleuropein] |  | 5 | 12 | 7 | 
